PubChem BioAssay AID1963958 (Molecular Pharmacology Branch, DTP, NCI, 2024)
Blank lines part the entries; values can stand above or below the compound they belong to.

System: MDA-MB-231 multicell spheroids, viability
Assay: Anticancer human tumor MDA-MB-231 cell line growth inhibition [PI3K];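 note: spheroids exposed to agents for seven days before reading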;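 for viability, T/C: percent of vehicle control luminescence with DMSO treated spheroids as 100%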
Details: for IC50: curve of first compound; for viability, T/C: stronger effect = lower value
Outline: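 Stroma-containing spheroids: tumor line, pooled-donor HUVEC, hMSC. Treatments: targeted agents with PI3K inhibitors. Dosing: clinically relevant, half-log spacing, 10 microM ceiling without known Cmax. Read-out: cell viability.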

[1] = second compound 0.00316 µM, first compound 0.0316 µM
[2] = second compound 0.00316 µM, first compound 0.1 µM
[3] = second compound 0.00316 µM, first compound 0.316 µM
[4] = second compound 0.00316 µM, first compound 1 µM
[5] = second compound 0.00316 µM, first compound 3.16 µM
[6] = second compound 0.00316 µM, first compound 10 µM
[7] = second compound 0.01 µM, first compound 0.0316 µM
[8] = second compound 0.01 µM, first compound 0.1 µM
[9] = second compound 0.01 µM, first compound 0.316 µM
[10] = second compound 0.01 µM, first compound 1 µM
[11] = second compound 0.01 µM, first compound 3.16 µM
[12] = second compound 0.01 µM, first compound 10 µM
[13] = second compound 0.0316 µM, first compound 0.0316 µM
[14] = second compound 0.0316 µM, first compound 0.1 µM
[15] = second compound 0.0316 µM, first compound 0.316 µM
[16] = second compound 0.0316 µM, first compound 1 µM
[17] = second compound 0.0316 µM, first compound 3.16 µM
[18] = second compound 0.0316 µM, first compound 10 µM
[19] = second compound 0.1 µM, first compound 0.0316 µM
[20] = second compound 0.1 µM, first compound 0.1 µM
[21] = second compound 0.1 µM, first compound 0.316 µM
[22] = second compound 0.1 µM, first compound 1 µM
[23] = second compound 0.1 µM, first compound 3.16 µM
[24] = second compound 0.1 µM, first compound 10 µM
[25] = second compound 0.316 µM, first compound 0.0316 µM
[26] = second compound 0.316 µM, first compound 0.1 µM
[27] = second compound 0.316 µM, first compound 0.316 µM
[28] = second compound 0.316 µM, first compound 1 µM
[29] = second compound 0.316 µM, first compound 3.16 µM
[30] = second compound 0.316 µM, first compound 10 µM
[31] = second compound 1 µM, first compound 0.0316 µM
[32] = second compound 1 µM, first compound 0.1 µM
[33] = second compound 1 µM, first compound 0.316 µM
[34] = second compound 1 µM, first compound 1 µM
[35] = second compound 1 µM, first compound 3.16 µM
[36] = second compound 1 µM, first compound 10 µM

IC50 (second compound 0.00316 µM): < 0.0316 µM
IC50 (second compound 0.01 µM): < 0.0316 µM
IC50 (second compound 0.0316 µM): < 0.0316 µM
IC50 (second compound 0.1 µM): < 0.0316 µM
IC50 (second compound 0.316 µM): < 0.0316 µM
IC50 (second compound 1 µM): < 0.0316 µM
SMILES: CC1(C)CCC(Nc2ncc(C(F)(F)F)c(-c3c[nH]c4c(P(C)(C)=O)c(C#N)ccc34)n2)CN1 (stereo unspecified) + CC(Nc1ccc2c(c1)OCCn1cc(N3C(=O)OCC3C(F)F)nc1-2)C(N)=O
viability, T/C [1]: 47.2%
viability, T/C [2]: 47.7%
viability, T/C [3]: 42.2%
viability, T/C [4]: 48.2%
viability, T/C [5]: 47.4%
viability, T/C [6]: 4.16%
viability, T/C [7]: 48.4%
viability, T/C [8]: 44.9%
viability, T/C [9]: 44.2%
viability, T/C [10]: 46.7%
viability, T/C [11]: 47.5%
viability, T/C [12]: 3.26%
viability, T/C [13]: 45.1%
viability, T/C [14]: 42.1%
viability, T/C [15]: 43.6%
viability, T/C [16]: 45.2%
viability, T/C [17]: 42.4%
viability, T/C [18]: 3.28%
viability, T/C [19]: 41.9%
viability, T/C [20]: 39.6%
viability, T/C [21]: 41.1%
viability, T/C [22]: 37.8%
viability, T/C [23]: 36.2%
viability, T/C [24]: 2.99%
viability, T/C [25]: 39.8%
viability, T/C [26]: 38.9%
viability, T/C [27]: 36.1%
viability, T/C [28]: 37.4%
viability, T/C [29]: 34.8%
viability, T/C [30]: 2.9%
viability, T/C [31]: 37.8%
viability, T/C [32]: 36%
viability, T/C [33]: 33.4%
viability, T/C [34]: 34.6%
viability, T/C [35]: 34.9%
viability, T/C [36]: 2.74%

IC50 (second compound 0.00316 µM): 2.72 µM
IC50 (second compound 0.01 µM): 2.61 µM
IC50 (second compound 0.0316 µM): 1.54 µM
IC50 (second compound 0.1 µM): 1.26 µM
IC50 (second compound 0.316 µM): 1.18 µM
IC50 (second compound 1 µM): 0.665 µM
SMILES: Cn1ncc(Cl)c1-c1cc(C(=O)NC(CN)Cc2cccc(F)c2)sc1Cl (stereo unspecified) + CC(Nc1ccc2c(c1)OCCn1cc(N3C(=O)OCC3C(F)F)nc1-2)C(N)=O
viability, T/C [1]: 95.7%
viability, T/C [2]: 94.2%
viability, T/C [3]: 91.2%
viability, T/C [4]: 73.4%
viability, T/C [5]: 46.9%
viability, T/C [6]: 25.3%
viability, T/C [7]: 91.5%
viability, T/C [8]: 95.2%
viability, T/C [9]: 80.7%
viability, T/C [10]: 70.5%
viability, T/C [11]: 45.9%
viability, T/C [12]: 22.8%
viability, T/C [13]: 76.4%
viability, T/C [14]: 75.2%
viability, T/C [15]: 70.1%
viability, T/C [16]: 58.3%
viability, T/C [17]: 36.6%
viability, T/C [18]: 24.1%
viability, T/C [19]: 71.4%
viability, T/C [20]: 68.8%
viability, T/C [21]: 62.9%
viability, T/C [22]: 55.6%
viability, T/C [23]: 34.5%
viability, T/C [24]: 22%
viability, T/C [25]: 66.4%
viability, T/C [26]: 59.7%
viability, T/C [27]: 59.7%
viability, T/C [28]: 53.4%
viability, T/C [29]: 36.8%
viability, T/C [30]: 21%
viability, T/C [31]: 58.9%
viability, T/C [32]: 56.9%
viability, T/C [33]: 55.1%
viability, T/C [34]: 46.8%
viability, T/C [35]: 36.9%
viability, T/C [36]: 18.9%

IC50 (second compound 0.00316 µM): 1.08 µM
IC50 (second compound 0.01 µM): 0.618 µM
IC50 (second compound 0.0316 µM): 0.27 µM
IC50 (second compound 0.1 µM): 0.0888 µM
IC50 (second compound 0.316 µM): 0.0669 µM
IC50 (second compound 1 µM): < 0.0316 µM
SMILES: Cn1nccc1Nc1nccc(-c2ccn(C(CO)c3ccc(Cl)c(F)c3)c(=O)c2)n1 (stereo unspecified) + CC(Nc1ccc2c(c1)OCCn1cc(N3C(=O)OCC3C(F)F)nc1-2)C(N)=O
viability, T/C [1]: 64.6%
viability, T/C [2]: 68.1%
viability, T/C [3]: 56.8%
viability, T/C [4]: 50.9%
viability, T/C [5]: 39.6%
viability, T/C [6]: 26.9%
viability, T/C [7]: 71.6%
viability, T/C [8]: 64.4%
viability, T/C [9]: 52%
viability, T/C [10]: 46.9%
viability, T/C [11]: 39.6%
viability, T/C [12]: 23%
viability, T/C [13]: 69.2%
viability, T/C [14]: 56.4%
viability, T/C [15]: 47.3%
viability, T/C [16]: 42.2%
viability, T/C [17]: 29.4%
viability, T/C [18]: 20.4%
viability, T/C [19]: 56.4%
viability, T/C [20]: 46.6%
viability, T/C [21]: 43%
viability, T/C [22]: 40.2%
viability, T/C [23]: 25.5%
viability, T/C [24]: 20.8%
viability, T/C [25]: 53.4%
viability, T/C [26]: 48.5%
viability, T/C [27]: 42.1%
viability, T/C [28]: 33.4%
viability, T/C [29]: 26.3%
viability, T/C [30]: 19%
viability, T/C [31]: 51.2%
viability, T/C [32]: 42.3%
viability, T/C [33]: 38.5%
viability, T/C [34]: 36.1%
viability, T/C [35]: 26.6%
viability, T/C [36]: 16.2%
